Measurements from patent US20100267561A1, “HERBICIDAL PYRIDAZINONE DERIVATIVES” (priority 2007, published 2010).
Read-outs that look alike come from different tables or passages of the source.

How the values were obtained:
Assay in all cases: Test B pre-/postemergence plant response
Assay type in all cases: in vivo
[1] = tested on: Italian ryegrass (Lolium multiflorum); details: for pest or weed control at 31 g/ha / pest or weed control at 62 g/ha: Lolium multiflorum, read-out: Plant response rating, Ryegrass, Italian; for pest or weed control at 31 g/ha: 31 g ai/ha; for pest or weed control at 62 g/ha: 62 g ai/ha, 100 complete control
In short: (§1)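 Visual scoring from 0 (no effect) to 100 (complete control) against untreated controls was done 13 to 15 days after greenhouse treatment. Chemicals were formulated in a surfactant-containing non-phytotoxic solvent and applied to soil preemergence or to 1- to 4-leaf (2-18 cm) plants postemergence.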

[2] = tested on: surinam grass (Brachiaria decumbens); details: for pest or weed control at 31 g/ha / pest or weed control at 62 g/ha: Urochloa decumbens, read-out: Plant response rating, Surinam Grass; for pest or weed control at 31 g/ha: 31 g ai/ha; for pest or weed control at 62 g/ha: 62 g ai/ha, 100 complete control
In short: as §1

[3] = tested on: cocklebur (Xanthium strumarium); details: for pest or weed control at 31 g/ha: 31 g ai/ha; for pest or weed control at 62 g/ha: 62 g ai/ha, 100 complete control
In short: as §1

[4] = tested on: soybean (Glycine max); details: for plant injury at 31 g/ha / plant injury at 62 g/ha: Glycine max, read-out: Plant response rating, Soybean; for plant injury at 31 g/ha: 31 g ai/ha; for plant injury at 62 g/ha: 62 g ai/ha, 100 complete control
In short: as §1

[5] = tested on: morningglory (Ipomoea coccinea); details: for pest or weed control at 31 g/ha / pest or weed control at 62 g/ha: Ipomoea, read-out: Plant response rating, Morningglory; for pest or weed control at 31 g/ha: 31 g ai/ha; for pest or weed control at 62 g/ha: 62 g ai/ha, 100 complete control
In short: as §1

[6] = tested on: wheat (Triticum aestivum); details: for plant injury at 31 g/ha / plant injury at 62 g/ha: Triticum aestivum, read-out: Plant response rating, Wheat; for plant injury at 31 g/ha: 31 g ai/ha; for plant injury at 62 g/ha: 62 g ai/ha, 100 complete control
In short: as §1

[7] = tested on: common (oilseed) sunflower (Helianthus annuus); details: Preemergence
In short: as §1

[8] = tested on: common ragweed (Ambrosia elation); details: for pest or weed control at 31 g/ha / pest or weed control at 62 g/ha: Ambrosia, read-out: Plant response rating, Ragweed; for pest or weed control at 31 g/ha: 31 g ai/ha; for pest or weed control at 62 g/ha: 62 g ai/ha, 100 complete control
In short: as §1

[9] = tested on: goosegrass (Eleusine indica); details: for pest or weed control at 31 g/ha / pest or weed control at 62 g/ha: Eleusine indica, read-out: Plant response rating, Goosegrass; for pest or weed control at 31 g/ha: 31 g ai/ha; for pest or weed control at 62 g/ha: 62 g ai/ha, 100 complete control
In short: as §1

[10] = tested on: bermudagrass (Cynodon dactylon); details: for pest or weed control at 31 g/ha: 31 g ai/ha; for pest or weed control at 62 g/ha: 62 g ai/ha, 100 complete control
In short: as §1

[11] = tested on: lambsquarters (Chenopodium album); details: for pest or weed control at 31 g/ha / pest or weed control at 62 g/ha: Chenopodium album, read-out: Plant response rating, Lambsquarters; for pest or weed control at 31 g/ha: 31 g ai/ha; for pest or weed control at 62 g/ha: 62 g ai/ha, 100 complete control
In short: as §1

[12] = tested on: johnsongrass (Sorghum halepense); details: for pest or weed control at 31 g/ha / pest or weed control at 62 g/ha: Sorghum halepense, read-out: Plant response rating, Johnsongrass; for pest or weed control at 31 g/ha: 31 g ai/ha; for pest or weed control at 62 g/ha: 62 g ai/ha, 100 complete control
In short: as §1

[13] = tested on: velvetleaf (Abutilon theophrasti); details: for pest or weed control at 31 g/ha / pest or weed control at 62 g/ha: Abutilon theophrasti, read-out: Plant response rating, Velvetleaf; for pest or weed control at 31 g/ha: 31 g ai/ha; for pest or weed control at 62 g/ha: 62 g ai/ha, 100 complete control
In short: as §1

[14] = 8 g ai/ha, postemergence, 0-100 scale
[15] = 16 g ai/ha, postemergence, 0-100 scale
[16] = post-emergence, Postemergence, scale 0 to 100
[17] = post-emergence, Postemergence, scale 0 to 100, 0 no effect
[18] = pre-emergence, Preemergence, scale 0 to 100 (0 no effect, 100 complete control)
[19] = pre-emergence, Preemergence, 0 to 100 scale, 0 no effect
[20] = Preemergence, 8 g ai/ha, scale 0 to 100 (0 no effect, 100 complete control)
[21] = Preemergence, 16 g ai/ha, scale 0 to 100

Cc1cc(-c2ccc(Br)cc2)nn1-c1c(O)cn[nH]c1=O [Compound 78, 4-[3-(4-bromophenyl)-5-methyl-1H-pyrazol-1-yl]-5-hydroxy-3(2H)-pyridazinone]
Ryegrass, Italian plant response rating [1, 14]: 90
Ryegrass, Italian plant response rating [1, 15]: 98
pest or weed control at 31 g/ha [1, 16]: 100%
pest or weed control at 62 g/ha [1, 17]: 100%
pest or weed control at 31 g/ha [1, 18]: 100%
pest or weed control at 62 g/ha [1, 19]: 100%
Ryegrass, Italian plant response rating [1, 20]: 98
Ryegrass, Italian plant response rating [1, 21]: 98
Surinam Grass plant response rating [2, 14]: 98
Surinam Grass plant response rating [2, 15]: 100
Surinam Grass plant response rating [2, 20]: 95
Surinam Grass plant response rating [2, 21]: 95
pest or weed control at 31 g/ha [2, 16]: 100%
pest or weed control at 62 g/ha [2, 17]: 100%
pest or weed control at 31 g/ha [2, 18]: 100%
pest or weed control at 62 g/ha [2, 19]: 100%
Cocklebur plant response rating [3, 14]: 0
Cocklebur plant response rating [3, 20]: 0
Cocklebur plant response rating [3, 21]: 0
pest or weed control at 16 g/ha ([3]; Xanthium strumarium, post-emergence, Postemergence, 16 g ai/ha, scale 0 to 100, read-out: Plant response rating, Cocklebur): 0%
pest or weed control at 31 g/ha ([3]; Xanthium strumarium, post-emergence, Postemergence, scale 0 to 100, read-out: Plant response rating, Cocklebur): 0%
pest or weed control at 62 g/ha ([3]; Xanthium strumarium, post-emergence, Postemergence, scale 0 to 100, 0 no effect, read-out: Plant response rating, Cocklebur): 0%
pest or weed control at 31 g/ha ([3]; Xanthium strumarium, pre-emergence, Preemergence, scale 0 to 100 (0 no effect, 100 complete control), read-out: Plant response rating, Cocklebur): 0%
pest or weed control at 62 g/ha ([3]; Xanthium strumarium, pre-emergence, Preemergence, 0 to 100 scale, 0 no effect, read-out: Plant response rating, Cocklebur): 0%
Soybean plant response rating [4, 14]: 0
Soybean plant response rating [4, 15]: 15
plant injury at 31 g/ha [4, 16]: 20%
plant injury at 62 g/ha [4, 17]: 25%
plant injury at 31 g/ha [4, 18]: 0%
plant injury at 62 g/ha [4, 19]: 0%
Soybean plant response rating [4, 20]: 0
Soybean plant response rating [4, 21]: 0
Morningglory plant response rating [5, 14]: 0
Morningglory plant response rating [5, 15]: 0
pest or weed control at 31 g/ha [5, 16]: 0%
pest or weed control at 62 g/ha [5, 17]: 0%
pest or weed control at 31 g/ha [5, 18]: 0%
pest or weed control at 62 g/ha [5, 19]: 0%
Morningglory plant response rating [5, 20]: 0
Morningglory plant response rating [5, 21]: 0
Wheat plant response rating [6, 14]: 50
Wheat plant response rating [6, 15]: 85
Wheat plant response rating [6, 20]: 0
Wheat plant response rating [6, 21]: 80
plant injury at 31 g/ha [6, 16]: 98%
plant injury at 62 g/ha [6, 17]: 100%
plant injury at 31 g/ha [6, 18]: 90%
plant injury at 62 g/ha [6, 19]: 95%
pest or weed control at 31 g/ha ([7]; Helianthus annuus, pre-emergence, 31 g ai/ha, scale 0 to 100 (0 no effect, 100 complete control), read-out: Plant response rating, Sunflower): 0%
pest or weed control at 62 g/ha ([7]; Helianthus annuus, pre-emergence, 62 g ai/ha, 0 to 100 scale, 0 no effect, 100 complete control, read-out: Plant response rating, Sunflower): 0%
Sunflower plant response rating ([7]; 8 g ai/ha, scale 0 to 100 (0 no effect, 100 complete control)): 0
Sunflower plant response rating ([7]; 16 g ai/ha, scale 0 to 100): 0
Ragweed plant response rating [8, 14]: 0
Ragweed plant response rating [8, 15]: 0
pest or weed control at 31 g/ha [8, 16]: 0%
pest or weed control at 62 g/ha [8, 17]: 60%
pest or weed control at 31 g/ha [8, 18]: 0%
pest or weed control at 62 g/ha [8, 19]: 0%
Ragweed plant response rating [8, 20]: 0
Ragweed plant response rating [8, 21]: 0
Goosegrass plant response rating [9, 14]: 70
Goosegrass plant response rating [9, 15]: 85
pest or weed control at 31 g/ha [9, 16]: 90%
pest or weed control at 62 g/ha [9, 17]: 100%
pest or weed control at 31 g/ha [9, 18]: 100%
pest or weed control at 62 g/ha [9, 19]: 100%
Goosegrass plant response rating [9, 20]: 85
Goosegrass plant response rating [9, 21]: 100
Bermudagrass plant response rating [10, 14]: 80
pest or weed control at 16 g/ha ([10]; Cynodon dactylon, post-emergence, Postemergence, 16 g ai/ha, scale 0 to 100, read-out: Plant response rating, Bermudagrass): 98%
pest or weed control at 31 g/ha ([10]; Cynodon dactylon, post-emergence, Postemergence, scale 0 to 100, read-out: Plant response rating, Bermudagrass): 100%
pest or weed control at 62 g/ha ([10]; Cynodon dactylon, post-emergence, Postemergence, scale 0 to 100, 0 no effect, read-out: Plant response rating, Bermudagrass): 100%
pest or weed control at 31 g/ha ([10]; Cynodon dactylon, pre-emergence, Preemergence, scale 0 to 100 (0 no effect, 100 complete control), read-out: Plant response rating, Bermudagrass): 100%
pest or weed control at 62 g/ha ([10]; Cynodon dactylon, pre-emergence, Preemergence, 0 to 100 scale, 0 no effect, read-out: Plant response rating, Bermudagrass): 100%
Bermudagrass plant response rating [10, 20]: 85
Bermudagrass plant response rating ([10]; Preemergence, 16 g ai/ha, scale 0 to 100 (0 no effect, 100 complete control)): 100
Lambsquarters plant response rating [11, 14]: 0
Lambsquarters plant response rating [11, 15]: 0
pest or weed control at 31 g/ha [11, 16]: 0%
pest or weed control at 62 g/ha [11, 17]: 0%
pest or weed control at 31 g/ha [11, 18]: 0%
pest or weed control at 62 g/ha [11, 19]: 0%
Lambsquarters plant response rating [11, 20]: 0
Lambsquarters plant response rating [11, 21]: 0
Johnsongrass plant response rating [12, 14]: 75
Johnsongrass plant response rating [12, 15]: 100
Johnsongrass plant response rating [12, 20]: 60
Johnsongrass plant response rating [12, 21]: 80
pest or weed control at 31 g/ha [12, 16]: 100%
pest or weed control at 62 g/ha [12, 17]: 100%
pest or weed control at 31 g/ha [12, 18]: 95%
pest or weed control at 62 g/ha [12, 19]: 100%
Velvetleaf plant response rating [13, 14]: 0
Velvetleaf plant response rating [13, 15]: 0
pest or weed control at 31 g/ha [13, 16]: 0%
pest or weed control at 62 g/ha [13, 17]: 0%
pest or weed control at 31 g/ha [13, 18]: 0%
pest or weed control at 62 g/ha [13, 19]: 0%
Velvetleaf plant response rating [13, 20]: 0
Velvetleaf plant response rating [13, 21]: 0
